# Data as given in ChEMBL document CHEMBL4483862, “Open-source discovery of chemical leads for next-generation chemoprotective antimalarials” (2018).
# Tested on: Plasmodium berghei
# Test: Luciferase/luciferin-expressing antifolate-resistant parasites were used to infect a culture of HepG2 cells that were pre-incubated with compounds. Infected hepatocytes emit light due to the luciferase reaction. Assay results are presented as the percent inhibition of light emission compared to control. […]
# Assay type: functional
# Settings: sporozoite; for IC90: read-out: LUCIFERASE INFECTION ASSAY - IC90
# [1] = read-out: LUCIFERASE INFECTION ASSAY - IC50
Compound,IC50 [1] [µM],IC90 [µM],further results
CN1CCN(S(=O)(=O)c2cc(C(=O)NCc3ccccc3F)cc(-c3ccccc3)c2)CC1,6.09,> 7.06,–
CN(C)c1ccccc1-c1cn2c(-c3ccc4c(ccn4C)c3)cnc2cn1,–,1.24,"IC50 (FFLUC_HILL_SLOPE 0.352, FFLUC_R_SQUARED 0.0452, HEPG2TOX_HILL_SLOPE 0.416, HEPG2TOX_R_SQUARED 0.805, PBLUC_HILL_SLOPE 0.654, PBLUC_R_SQUARED 0.684, read-out: LUCIFERASE INFECTION ASSAY - IC50): 0.043 µM"
Cc1oc(-c2ccccc2)nc1C(=O)N(C)CC(=O)Nc1ccc(N2CCOCC2)cc1,–,> 10,"IC50 (FFLUC_HILL_SLOPE 0.476, FFLUC_R_SQUARED 0.109, HEPG2TOX_HILL_SLOPE 11.6, HEPG2TOX_R_SQUARED 0.88, read-out: LUCIFERASE INFECTION ASSAY - IC50): > 10 µM"
CCOC(=O)N1CCC(NC(=O)/C(=C/c2ccc(OC(F)F)cc2)c2ccccc2)CC1,–,9.96,"IC50 (PBLUC_HILL_SLOPE 9.1, PBLUC_R_SQUARED 0.0303, read-out: LUCIFERASE INFECTION ASSAY - IC50): 7.82 µM"
CCCCOc1ccc(C(=O)Nc2ccc(N(c3ccccc3)C(C)C)cc2)cc1OCC,> 10,> 10,–
Cc1cc(C(=O)COC(=O)c2[nH]nc3ccccc23)c(C)n1Cc1cccs1,–,6.39,"IC50 (PBLUC_HILL_SLOPE 1.56, PBLUC_R_SQUARED 0.399, read-out: LUCIFERASE INFECTION ASSAY - IC50): 1.56 µM"
c1ccc(Oc2ccccc2-c2cnc3c(NCc4cccs4)nccn23)cc1,4.96,> 8.28,–
Oc1ccc(-c2cn3c(-c4ccc(Cl)cc4)cnc3cn2)cc1,–,5.63,"IC50 (HEPG2TOX_HILL_SLOPE 7.91, HEPG2TOX_R_SQUARED 0.667, PBLUC_HILL_SLOPE 4.16, PBLUC_R_SQUARED 0.739, read-out: LUCIFERASE INFECTION ASSAY - IC50): 3.32 µM"
CCCc1cc(N2CCN(C)CC2)n2ncc(-c3ccccc3)c2n1,2.71,> 9.84,–
CCN(CC)S(=O)(=O)c1ccc(C)c(NC(=O)CCc2ncc(-c3ccc(C)cc3)o2)c1,–,8.55,"IC50 (HEPG2TOX_HILL_SLOPE 2.43, HEPG2TOX_R_SQUARED 0.985, PBLUC_HILL_SLOPE 1.82, PBLUC_R_SQUARED 0.587, read-out: LUCIFERASE INFECTION ASSAY - IC50): 2.56 µM"
Cc1c(C(=O)Nc2ccc(N3CCN(C)CC3)nc2)cnn1-c1ccc(C(F)(F)F)cn1,> 10,> 10,–
Cc1ccc(-c2nc(C(=O)NCCCN(C)C)cc3c2[nH]c2ccccc23)cc1,> 8.54,> 8.54,–
CCCc1ccc(-c2csc(NC(=O)CC(NC(=O)c3ccccc3Cl)c3ccccc3)n2)cc1 (centres undefined),–,> 10,"IC50 (FFLUC_HILL_SLOPE 390, FFLUC_R_SQUARED 0.412, read-out: LUCIFERASE INFECTION ASSAY - IC50): > 10 µM"
CC(=O)c1c(C)[nH]c(C(=O)CSc2c(C)c(C)cc(C)c2C)c1C,–,> 10,"IC50 (PBLUC_HILL_SLOPE 11.6, PBLUC_R_SQUARED 0.344, read-out: LUCIFERASE INFECTION ASSAY - IC50): > 10 µM"
COc1ccccc1N1CCN(S(=O)(=O)c2cccc(Cl)c2)CC1,> 9,> 9,–
CC(=O)c1c(C)[nH]c(C(=O)OC(c2ccccc2)c2ccc(Cl)cc2)c1C (centres undefined),> 10,> 10,–
Cn1c(NCc2ccccc2F)nc2cnc(-c3ccc(Cl)cc3)cc21,> 10,> 10,–
COC(=O)c1c(NC(=O)CSc2nnc(-c3ccccc3Cl)n2C2CCCC2)sc(C)c1C,–,> 10,"IC50 (PBLUC_HILL_SLOPE 0.364, PBLUC_R_SQUARED 0.4, read-out: LUCIFERASE INFECTION ASSAY - IC50): > 10 µM"
CC(C)=CC(=O)Nc1scc(-c2ccccc2)c1C(=O)OCC(=O)Nc1ccc([N+](=O)[O-])cc1Cl,–,> 10,"IC50 (HEPG2TOX_HILL_SLOPE 0.0482, HEPG2TOX_R_SQUARED 0.161, PBLUC_HILL_SLOPE 2.32, PBLUC_R_SQUARED 0.465, read-out: LUCIFERASE INFECTION ASSAY - IC50): 5.35 µM"
CN1C(=O)N(Cc2ccc3ccccc3c2)C(=O)C12CCN(Cc1ccc(C#CC(C)(C)O)cc1)CC2,–,2.84,"IC50 (HEPG2TOX_HILL_SLOPE 3.16, HEPG2TOX_R_SQUARED 0.979, PBLUC_HILL_SLOPE 9.91, PBLUC_R_SQUARED 0.437, read-out: LUCIFERASE INFECTION ASSAY - IC50): 2.27 µM"
O=C(NNC(=O)c1nn(-c2ccccc2)cc1O)c1ccc(-n2cccn2)cc1,–,4.26,"IC50 (HEPG2TOX_HILL_SLOPE 1.34, HEPG2TOX_R_SQUARED 0.874, PBLUC_HILL_SLOPE 11.6, PBLUC_R_SQUARED 0.65, read-out: LUCIFERASE INFECTION ASSAY - IC50): 3.53 µM"

Compound,IC50 [1] [µM],IC90 [µM],further results
O=c1c(Cl)c(Cl)cnn1-c1cc(Cl)cc(Cl)c1,–,4.28,"IC50 (FFLUC_HILL_SLOPE 2.56, FFLUC_R_SQUARED 0.592, HEPG2TOX_HILL_SLOPE 5.14, HEPG2TOX_R_SQUARED 0.846, PBLUC_HILL_SLOPE 13.3, PBLUC_R_SQUARED 0.218, read-out: LUCIFERASE INFECTION ASSAY - IC50): 3.63 µM"
COc1cc(CNC2CCCC2)c(Br)cc1OC1CCCC1,–,> 8.15,"IC50 (PBLUC_HILL_SLOPE 45, PBLUC_R_SQUARED 0.216, read-out: LUCIFERASE INFECTION ASSAY - IC50): 8.1 µM"
O=C(c1cnc2cc3c(cc2c1)OCCCO3)c1ccccc1O,–,5.25,"IC50 (FFLUC_HILL_SLOPE 1.6, FFLUC_R_SQUARED 0.767, HEPG2TOX_HILL_SLOPE 8.36, HEPG2TOX_R_SQUARED 0.65, PBLUC_HILL_SLOPE 1.47, PBLUC_R_SQUARED 0.802, read-out: LUCIFERASE INFECTION ASSAY - IC50): 1.17 µM"
O=C(Nc1nnc[nH]1)C1(c2ccc(F)cc2)CC1,> 10,> 10,–
CC(=O)NCCc1ccc(C(=O)Cn2cnc3ccc(Cl)cc3c2=O)s1,> 10,> 10,–
Fc1cccc(F)c1/C=N/c1ccccc1N1CCOCC1,> 10,> 10,–
CN(C)c1ccc(-c2cc3c(Nc4ccc5c(c4)OCO5)nccc3n2C)cc1,–,3.98,"IC50 (HEPG2TOX_HILL_SLOPE 12.1, HEPG2TOX_R_SQUARED 0.137, PBLUC_HILL_SLOPE 13.7, PBLUC_R_SQUARED 0.564, read-out: LUCIFERASE INFECTION ASSAY - IC50): 3.39 µM"
C#CCSc1nc2ccc(Cl)cc2c(=O)n1-c1cc(OC(C)C)c(Cl)cc1Cl,–,> 7.27,"IC50 (FFLUC_HILL_SLOPE 5.89, FFLUC_R_SQUARED 0.859, HEPG2TOX_HILL_SLOPE 0.407, HEPG2TOX_R_SQUARED 0.572, PBLUC_HILL_SLOPE 3.96, PBLUC_R_SQUARED 0.341, read-out: LUCIFERASE INFECTION ASSAY - IC50): 5.27 µM"
CCN(CC)Cc1nc(Oc2ccc(C)cc2OC)c2c(C)c(C)sc2n1,–,> 10,"IC50 (HEPG2TOX_HILL_SLOPE 7.2, HEPG2TOX_R_SQUARED 0.121, read-out: LUCIFERASE INFECTION ASSAY - IC50): > 10 µM"
CCOC(=O)c1nnsc1[S+]([O-])c1ccc(Cl)cc1 (centres undefined),> 10.4,> 10.4,–
COc1ccc2c(c1)CCCN2Cc1nn2c(=O)cc(C)nc2s1,> 10,> 10,–
CC(C)NC(=O)N1CCc2nc(NCc3cccc(Oc4ccccc4)c3)ncc2C1,–,3.31,"IC50 (HEPG2TOX_HILL_SLOPE 2.9, HEPG2TOX_R_SQUARED 0.984, PBLUC_HILL_SLOPE 15.1, PBLUC_R_SQUARED 0.233, read-out: LUCIFERASE INFECTION ASSAY - IC50): 2.86 µM"
FC(F)(F)Oc1ccc(-c2ccc(OCc3ccccn3)nc2)cc1,–,> 9.53,"IC50 (HEPG2TOX_HILL_SLOPE 9.63, HEPG2TOX_R_SQUARED 0.944, read-out: LUCIFERASE INFECTION ASSAY - IC50): > 9.53 µM"
COc1ccc(-c2cc([N+](=O)[O-])ccc2OC(C)C(=O)N2CCC(C)CC2)cc1 (centres undefined),–,4.24,"IC50 (PBLUC_HILL_SLOPE 7.12, PBLUC_R_SQUARED 0.553, read-out: LUCIFERASE INFECTION ASSAY - IC50): 3.11 µM"
CCCN1CCN(C(=O)c2ccc(-c3ccc(C(C)=O)cc3)o2)CC1,–,> 10,"IC50 (PBLUC_HILL_SLOPE 0.574, PBLUC_R_SQUARED 0.0124, read-out: LUCIFERASE INFECTION ASSAY - IC50): > 10 µM"
COc1ccccc1N(C)S(=O)(=O)c1ccc(C(=O)NNC(=O)c2nn(C)c(=O)c3ccccc23)cc1,–,> 10,"IC50 (HEPG2TOX_HILL_SLOPE 7.89, HEPG2TOX_R_SQUARED 0.384, read-out: LUCIFERASE INFECTION ASSAY - IC50): > 10 µM"
CCOc1ccc(S(=O)(=O)Nc2cc(Sc3ccc(C)cc3)c(O)c3ccccc23)cc1,–,> 10,"IC50 (FFLUC_HILL_SLOPE 11.6, FFLUC_R_SQUARED 0.0239, HEPG2TOX_HILL_SLOPE 1.78, HEPG2TOX_R_SQUARED 0.0588, PBLUC_HILL_SLOPE 15.2, PBLUC_R_SQUARED 0.324, read-out: LUCIFERASE INFECTION ASSAY - IC50): 9.98 µM"
O=C(c1cc(C2=NNC(=Nc3ccc(Cl)cc3)SC2)c[nH]1)N1CCCC1,–,> 10,"IC50 (PBLUC_HILL_SLOPE 2.6, PBLUC_R_SQUARED 0.441, read-out: LUCIFERASE INFECTION ASSAY - IC50): 5.46 µM"
CC(=O)NCCCc1ccc(C(=O)COC(=O)c2ccccc2-n2cnnn2)cc1,–,2.51,"IC50 (PBLUC_HILL_SLOPE 3.15, PBLUC_R_SQUARED 0.801, read-out: LUCIFERASE INFECTION ASSAY - IC50): 1.25 µM"
CC(C)c1ccc(NC(=O)CCCc2ccccc2)cc1,> 11.7,> 11.7,–
COc1ccc2c(-c3ccccc3)cc(SC(C)C(=O)N3CCNC3=O)nc2c1 (centres undefined),–,1.25,"IC50 (FFLUC_HILL_SLOPE 2.47, FFLUC_R_SQUARED 0.615, PBLUC_HILL_SLOPE 18.2, PBLUC_R_SQUARED 0.514, read-out: LUCIFERASE INFECTION ASSAY - IC50): 1.11 µM"
